Assay [1] has as its target T1, full length human PPARα (Homo sapiens, UniProt Q07869).
T1 construct: expressed in transfected cells; host or cells: CV-1 cells, vector pVP16 (Clonetech)
T1 sequence (Q07869 1-468): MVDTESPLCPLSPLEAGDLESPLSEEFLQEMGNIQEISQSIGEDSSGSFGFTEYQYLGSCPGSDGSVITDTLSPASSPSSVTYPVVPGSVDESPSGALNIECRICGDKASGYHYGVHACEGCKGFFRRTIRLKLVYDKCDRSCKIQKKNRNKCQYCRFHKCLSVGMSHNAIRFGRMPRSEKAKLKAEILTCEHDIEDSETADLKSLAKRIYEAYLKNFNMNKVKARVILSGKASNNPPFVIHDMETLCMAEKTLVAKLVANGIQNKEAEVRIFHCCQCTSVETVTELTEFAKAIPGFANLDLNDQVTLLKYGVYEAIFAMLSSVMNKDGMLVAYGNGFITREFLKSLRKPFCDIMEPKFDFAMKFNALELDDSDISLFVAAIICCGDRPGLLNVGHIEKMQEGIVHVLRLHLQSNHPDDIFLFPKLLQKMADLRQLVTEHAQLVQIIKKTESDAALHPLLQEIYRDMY
In words: Mammalian two-hybrid assay (CV-1 cells). The class given is cell-based. Conditions: VP16-PPARα, GAL4-NCoR (2239-2300), result in words. An excerpt:
Mammalian two-hybrid assays were used to examine the ability of the tyrosine-based class of PPAR ligands to promote association or dissociation of the co-activator CBP and the corepressor NCoR in the context of a cellular environment. The assays for the three PPAR subtypes used full length human PPARα, PPARγ2 or PPARδ fused to the activation domain of VP16 and previously identified interaction domains of CBP and NCoR fused to the DNA binding domain of GAL4.
Expression plasmids for the VP16-human PPAR constructs were prepared by inserting amplified cDNAs encoding full length PPARα, PPARγ2 and PPARδ fused to amino acids 410-490 of the VP16 viral activation domain, into the expression vector pVP16 (Clonetech). […] The reporter plasmid was (UAS)5-tk-SPAP, and the internal control plasmid for all transfections was β-galactosidase expression vector (pCH110, Amersham).
CV-1 cells were maintained in culture in DME high glucose medium supplemented with 10% FBS and 2 mM glutamine in a humidified incubator (5% CO2 in air) at 37° C. Cells were harvested 72 hours prior to experimental use and placed in phenol red free D-MEM/F-12 medium with 15 mM HEPES supplemented with 10% charcoal/dextran-treated FBS (HyClone, Logan, Utah). The cells were harvested and seeded at 2.0×10^4 cell per well in a 96-well plate the day prior to transfection. Cells were transfected for 16 hr using Lipofectamine (Life Technologies, Inc., Rockville, Md.) essentially according to the manufacturer's instructions. The total amount of DNA transfected into each well was 80 ng. Transfection mixtures contained 8 ng VP16-PPAR plasmid, 8 ng SPAP reporter, 25 ng of pCH110(β-galactosidase) control plasmid, 35 ng of pBluescript II KS+ (Clonetech) and 4 ng of either coactivator or corepressor plasmid. Transfection quantities for full length PPAR and cofactor plasmids were optimized to generate a signal that was half of the maximal activation. These conditions would allow for dissociation or association to be experimentally determined for each ligand evaluated. Stock solutions of drugs were prepated in DMSO and dilutions were made in phenol red-free D-MEM/F-12 with 15 mM HEPES supplemented with 10% charcoal stripped, delipidated, heat inactivated (62° C. for 35 min) bovine calf serum (Sigma, St. Louis, Mo.) such that the final concentration of DMSO was 0.1%. Transfection mixtures were aspirated and 100 μl, of medium containing drug was added to each well.

In assay [2] the target is T2, PPARα LBD (Homo sapiens, UniProt Q07869).
T2 construct: made in house; host or cells: bacterial BL21-DE3, vector pRSETA
T2 sequence (Q07869 192-468): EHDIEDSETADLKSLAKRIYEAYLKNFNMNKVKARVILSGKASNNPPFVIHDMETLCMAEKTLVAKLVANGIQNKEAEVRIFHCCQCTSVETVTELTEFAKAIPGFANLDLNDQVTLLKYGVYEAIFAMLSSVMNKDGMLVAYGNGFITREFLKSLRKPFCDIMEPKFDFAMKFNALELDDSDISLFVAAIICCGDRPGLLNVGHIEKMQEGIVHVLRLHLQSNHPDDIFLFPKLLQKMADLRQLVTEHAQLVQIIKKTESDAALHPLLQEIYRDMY
The experiment in a line: FRET assay: ligand effect on CBP fragment / NCoR ID-C binding to PPAR LBD. The class given is biochemical. Conditions: 10 nM PPAR LBD; for effect on apparent affinity of PPARα for the co-activator fragment from CBP: CBP (57-454). An excerpt: (§1) The experimentally determined α value is the ratio of cofactor affinities in the presence and absence of a saturating concentration of ligand. This analysis permits a direct comparison of the effects of compounds, independent of cofactor concentration and differences in coregulator affinity for the individual receptors. […] 98(9): p.
(§2) The effects of the coregulator environment on the apparent affinities and selectivities of various ligands were than examined. Experimentally determined pKs and the α values derived from the FRET assay were used to calculate the apparent affinity of the ligand for the receptor/cofactor complex (i.e. K/α).
(§3) FIG. 5 illustrates the effect of ligands on coactivator and corepressor binding to PPAR subtypes determined by FRET.

Assay [3] concerns the target T3, PPARδ LBD (Homo sapiens, UniProt Q03181).
T3 construct: made in house; host or cells: bacterial BL21-DE3, vector pRSETA
T3 sequence (Q03181 139-441): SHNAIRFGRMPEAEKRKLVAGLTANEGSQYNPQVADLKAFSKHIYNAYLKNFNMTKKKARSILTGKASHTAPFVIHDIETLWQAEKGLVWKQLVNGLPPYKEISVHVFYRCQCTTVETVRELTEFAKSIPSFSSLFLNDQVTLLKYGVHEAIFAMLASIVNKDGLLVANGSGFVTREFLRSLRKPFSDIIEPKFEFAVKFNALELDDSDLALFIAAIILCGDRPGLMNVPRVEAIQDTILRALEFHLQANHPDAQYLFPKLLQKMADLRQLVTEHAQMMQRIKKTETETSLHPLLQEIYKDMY
Described as above. The class given is biochemical. Conditions: 10 nM PPAR LBD, CBP (57-454).
Source text: as §1, §2, §3

Assay [4] concerns the target T4, PPARδ LBD / RXRα LBD (Homo sapiens, UniProt Q03181).
T4 sequence (Q03181 139-441): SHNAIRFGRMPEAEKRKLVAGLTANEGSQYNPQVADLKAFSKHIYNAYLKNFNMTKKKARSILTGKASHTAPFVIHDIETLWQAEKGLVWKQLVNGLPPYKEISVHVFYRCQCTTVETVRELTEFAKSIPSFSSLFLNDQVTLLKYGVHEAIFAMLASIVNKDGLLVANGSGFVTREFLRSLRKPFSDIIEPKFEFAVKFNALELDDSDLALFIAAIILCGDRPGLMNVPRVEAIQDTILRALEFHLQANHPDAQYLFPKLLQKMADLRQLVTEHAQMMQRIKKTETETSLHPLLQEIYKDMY
T4 sequence (P19793 225-462 partner limits assumed): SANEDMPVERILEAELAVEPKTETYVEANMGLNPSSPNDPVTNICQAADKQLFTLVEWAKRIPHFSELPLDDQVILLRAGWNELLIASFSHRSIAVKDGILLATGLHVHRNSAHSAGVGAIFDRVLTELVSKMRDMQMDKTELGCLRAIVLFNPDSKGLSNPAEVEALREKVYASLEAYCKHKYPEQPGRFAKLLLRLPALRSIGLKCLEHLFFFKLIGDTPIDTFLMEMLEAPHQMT
In words: FRET assay: ligand effect on RXRα LBD binding to PPAR LBD. Conditions: 10 nM PPAR LBD, 4 concentrations of RXR.

Assay [5] has as its target GAL4-CBP (1-115) (UniProt P04386 1-147; P45481 1-115). In words: cell-based or functional assay.

For `CCC(=O)NC[C@H](Cc1ccc(OCCc2nc(-c3ccccc3)oc2C)cc1)N/C(C)=C\C(=O)c1ccc(C(F)(F)F)cc1` [GW6471], the “effect on PPARα interaction with NCoR” value in assay [1] is recorded as “modulation of co-repressor interaction was seen”.

With `Cc1oc(-c2ccccc2)nc1CCOc1ccc(C[C@H](Nc2ccccc2C(=O)c2ccccc2)C(=O)O)cc1` [GW2570, farglitazar], the “effect on apparent affinity of PPARα for the co-activator fragment from CBP” value (from here on “effect on apparent affinity of PPARα”) in assay [2] is “increased the apparent affinity”. Moreover, in assay [3], the “effect on apparent affinity of PPARδ for the co-activator fragment from CBP” value was “increased the apparent affinity”. Also, the “promotion of association of PPARδ with RXR” value in assay [4] is “most effective”. `Cc1cc(SCc2sc(-c3ccc(C(F)(F)F)cc3)nc2C)ccc1OCC(=O)O` [GW1516]: the “effect on apparent affinity of PPARα” value in assay [2] is “increased the apparent affinity”. Further, in assay [2] (NCoR ID-C), the “effect on affinity of PPARα for the co-repressor peptide” value is “decreased the affinity”. For the molecule `C/C(=C/C(=O)c1ccccc1)N[C@@H](Cc1ccc(OCCc2nc(-c3ccccc3)oc2C)cc1)C(=O)O` [GW9544], in assay [2], the “effect on apparent affinity of PPARα” value is “increased the apparent affinity”.

B1: VP16-human PPARδ (full length) (other)
chain: LSTAPPTDVSLGDELHLDGEDVAMAHADALDDFDLDMLGDGDSPGPGFTPHDSAPYGALDMADFEFEQMFTDALGIDEYGGMEQPQEEAPEVREEEEKEEVAEAEGAPELNGGPQHALPSSSYTDLSRSSSPPSLLDQLQMGCDGASCGSLNMECRVCGDKASGFHYGVHACEGCKGFFRRTIRMKLEYEKCERSCKIQKKNRNKCQYCRFQKCLALGMSHNAIRFGRMPEAEKRKLVAGLTANEGSQYNPQVADLKAFSKHIYNAYLKNFNMTKKKARSILTGKASHTAPFVIHDIETLWQAEKGLVWKQLVNGLPPYKEISVHVFYRCQCTTVETVRELTEFAKSIPSFSSLFLNDQVTLLKYGVHEAIFAMLASIVNKDGLLVANGSGFVTREFLRSLRKPFSDIIEPKFEFAVKFNALELDDSDLALFIAAIILCGDRPGLMNVPRVEAIQDTILRALEFHLQANHPDAQYLFPKLLQKMADLRQLVTEHAQMMQRIKKTETETSLHPLLQEIYKDMY
On to B1, for which, in assay [5], the “mammalian two-hybrid reporter, fold association with GW1929 and GW7845” value is about 2 fold.

These data come from patent US20050227220A1, “Compositions and Methods for Evaluating and Designing Nuclear Receptor Ligands that Modulate Co-Regulator Affinity” (priority 2002, published 2005).
